# Data from patent US20010053774A1, “Non-steroidal ligands for the estrogen receptor” (GLAXO WELLCOME INC.., priority 1994, published 2001).
# Read-outs that look alike come from different tables or passages of the source.
# Columns and labels:
# [1] = system: 21 day old female SD rats; test: in-vivo anti-uterotrophic activity in immature rats (uterine weight/body weight); set-up: species or system rat; details: 10 μmol/kg by gavage for 3 days, compared with tamoxifen
# Procedure: In order to evaluate the compounds set forth above for in-vivo anti-uterotrophic activity, groups of five 21 day old female SD rats (30-35 g) were weighed and the average weights recorded for each treatment group as illustrated in FIG. 1. Stock solutions (10×) of the triphenylethylene analogs in ethanol were diluted with 0.5% methyl cellulose and 10 μmol/kg was dosed by gavage to the animals. Estradiol was dissolved in sesame oil and 100 nmol/kg dosed by subcutaneous injection. Animals were dosed for 3 days and sacrificed on day 4 by CO2 asphyxiation. The body weights were obtained, uteri removed, blotted and weighed. Data is expressed as uterine weight/body weight±standard error. Solid bars represent data from animals dosed with test compound alone. Open bars represent data from animals dosed with test compounds 6h prior to a dose of estradiol.
# [2] = system: Ishikawa human endometrioma cell line; test: Ishikawa cell functional assay of estrogenic activity (alkaline phosphatase induction); assay type: cell-based; details: for EC50: Ishikawa-Var I cells, 2 days incubation, estrogen agonist activity, read-out: EC50 (concentration inducing 50% of maximal alkaline phosphatase activity); for Emax: Ishikawa, read-out: Emax (maximal alkaline phosphatase activity); for Emax / Emax (maximal alkaline phosphatase activity): percentage of the alkaline phosphatase activity induced by a saturating concentration of estradiol; for agonist activity (Emax) in the Ishikawa cell functional assay (in words): comparison with tamoxifen or within the series
# Procedure: Subconfluent Ishikawa-Var I cells were removed from maintenance growth conditions and resuspended in phenol red-free DMEM-F12 containing 5% charcoal stripped FBS and 2 mM glutamine at a concentration of 58,500 cells/mL. Cells were plated at a density of 13,000 cells/cm^2 and placed in an incubator (37° C., 5% CO2) for 3 days. Cells were harvested and resuspended in phenol red-free DMEM-F12 containing 1% charcoal stripped FBS, 2 mM glutamine, 100 Units/mL penicillin and 100 μg/mL streptomycin to a concentration of 83,000 cells/mL. Cells were seeded at a density of 8300 cells/well in 96 well plates and allowed to attach overnight. Appropriate drug treatments at 2× concentrations were added in 0.1 mL of medium containing 0.2% DMSO. Plates were incubated for 2 days, media was aspirated and plates washed once with 300 μL 0.9% sterile saline. Plates were frozen at −70° C. and then warmed to RT. The attached cells were assayed for alkaline phosphatase activity by addition of 200 μL of 5 mM p-nitrophenylphosphate in 1 M diethanolamine, pH 10.4, containing 0.1% (w/v) Triton X-100, incubation at 37° C. for 30 min and measurement of absorbance at 405 nm on a Molecular Devices ThermoMax plate reader.
# rat estrogen receptor = rat estrogen receptor (Rattus norvegicus, UniProt P06211); details: for receptor affinity in the receptor binding assay (in words): comparison within the amide analog series
# Excerpt: Those skilled in the art will appreciate that several acceptable varieties of rat estrogen receptor binding assays are known and available for initial screening of the compounds of the present invention with respect to their ability to bind to the appropriate receptor. Compounds were initially evaluated as set forth below in an rat estrogen receptor binding assay for the ability to inhibit the binding of [^3H]-estradiol.
# [3] = system: 90 day old estrogen deficient ovariectomized rats; test: bone mineral density in ovariectomized rats (lumbar spine and tibia); assay type: in vivo, rat; details: 10 μmol/kg orally once a day for 28 days, versus sham-operated
# Procedure: As an example of the functional profile of these compounds in bone, Compound No. 9 was evaluated in 90 day old estrogen deficient ovariectomized rats for their ability to inhibit loss of bone mineral density. Ninety day old SD rats were divided into groups of six. […] were surgically ovariectomized. Two days post-ovariectomy, animals were dosed by gavage with either 10 μmol/kg of Compound No. 9 in 0.5% methyl cellulose or vehicle once a day for 28 days. One group of aminals was sham-operated, and 2 days post-ovariectomy dosed with vehicle once a day for 28 days. At 0, 14 and 28 days, rats were anesthesized with isoflurane and placed in the supine position with their spines parallel to the long axis of the densitometer table. The lumbar spine was scanned using the pelvic bones as a landmark. […] The right tibia was analysed with subregional high resolution software, focusing on the 3-5 mm distal from the growth plate previously identified as a region of accelerated bone loss due to ovariectomy.
# BMD was measured by dual-energy X-ray absorptiometry using a Hologic QDR-2000 bone densitometer using a regional high-resolution software package with default scan length, width, line spacing and point resolution of 2, 0.75, 0.01 and 0.005 in. respectively.
# Sequence of rat estrogen receptor (P06211 whole entry): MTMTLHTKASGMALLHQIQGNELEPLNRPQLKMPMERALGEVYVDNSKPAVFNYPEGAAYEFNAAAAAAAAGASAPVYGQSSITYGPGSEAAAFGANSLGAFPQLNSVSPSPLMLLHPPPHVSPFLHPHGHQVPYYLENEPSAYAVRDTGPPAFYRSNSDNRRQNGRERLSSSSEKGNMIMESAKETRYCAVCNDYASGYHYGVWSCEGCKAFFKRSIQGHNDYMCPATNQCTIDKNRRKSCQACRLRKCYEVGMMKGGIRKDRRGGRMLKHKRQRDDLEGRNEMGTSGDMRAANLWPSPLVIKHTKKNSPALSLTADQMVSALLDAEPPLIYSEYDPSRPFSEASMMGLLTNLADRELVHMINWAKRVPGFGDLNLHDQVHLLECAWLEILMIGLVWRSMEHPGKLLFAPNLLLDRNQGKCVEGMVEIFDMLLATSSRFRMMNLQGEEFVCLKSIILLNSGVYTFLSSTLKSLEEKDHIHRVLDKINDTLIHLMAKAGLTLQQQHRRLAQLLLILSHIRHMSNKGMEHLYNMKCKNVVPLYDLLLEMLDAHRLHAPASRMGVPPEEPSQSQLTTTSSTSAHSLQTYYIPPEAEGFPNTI
melting point [°C],"EC50 ([2]; Homo sapiens, 48 h) [nM]",SMILES,Emax ([2]; Homo sapiens) [%],other results
200 to 202,8.6,"CCC(=C(c1ccccc1)c1ccc(C=CC(N)=O)cc1)c1ccccc1 [compound 15, 3-[4-(1,2-Diphenyl-but-1-enyl)-phenyl]acrylamide]",8.9 ± 1.4,"residual agonist activity, uterine weight/body weight (FIG. 1) [1]: less residual agonist activity than tamoxifen; agonist activity (Emax) in the Ishikawa cell functional assay (in words) [2]: lowest residual agonist activity"
132 to 135,11,"CCC(=C(c1ccccc1)c1ccc(C=CC(=O)NCCCOC)cc1)c1ccccc1 [compound 11, 3-[4-(1,2-Diphenyl-but-1-enyl)-phenyl]-N-(3-methoxy-propyl)-acrylamide]",14 ± 1.5,
42 to 44,4.9,"CCC(=C(c1ccccc1)c1ccc(C2CC2C(=O)N(CC)CC)cc1)c1ccccc1 (stereo not drawn) [compound 3, 2-[4-(1,2-Diphenyl-but-1-enyl)-phenyl]cyclopropanecarboxylic acid diethylamide]",15.7 ± 1.8,
,,"CCC(=C(c1ccccc1)c1ccc(C=CC(=O)N(CC)CC)cc1)c1ccccc1 [Compound No. 1, 3-[4-(1,2-Diphenyl-but-1-enyl)-phenyl]-N,N-diethyl acrylamide]",,receptor affinity in the receptor binding assay (in words) (rat estrogen receptor): highest affinity; estrogen receptor binding affinity relative to tamoxifen (rat estrogen receptor; higher affinity than tamoxifen): approx. 10 fold; EC50 [2]: 2.3 nM; agonist activity (Emax) in the Ishikawa cell functional assay (in words) [2]: significantly lower agonist activity (Emax) than tamoxifen; Emax (maximal alkaline phosphatase activity) [2]: 11.9 ± 1.2%
,0.01,"C[C@]12CC[C@@H]3c4ccc(O)cc4CC[C@H]3[C@@H]1CC[C@@H]2O [Estradiol, estradiol, reference compound]",100,
133 to 135,,"CCC(=C(c1ccccc1)c1ccc(C=CC(=O)OC)cc1)c1ccccc1 [Compound No. 6, 3-[4-(1,2-Diphenyl-but-1-enyl)-phenyl]-acrylic acid methyl ester]",,
,,"CCCCCCCCN(C)C(=O)C=Cc1ccc(C(=C(CC)c2ccccc2)c2ccccc2)cc1 [compound 14, 3-[4-(1,2-Diphenyl-but-1-enyl)-phenyl]-N-methyl-N-octyl acrylamide]",,EC50 [2]: 12 nM; agonist activity (Emax) in the Ishikawa cell functional assay (in words) [2]: lowest residual agonist activity; Emax (maximal alkaline phosphatase activity) [2]: 6.3 ± 1.2%
,,"CCC(=C(c1ccccc1)c1ccc(C=CC(=O)N(CC)CCN(C)C)cc1)c1ccccc1 [compound 13, N-(2-Dimethylamino-ethyl)-3-[4-(1,2-diphenyl-but-1-enyl)-phenyl]-N-ethyl acrylamide]",,EC50 [2]: 4.6 nM; Emax (maximal alkaline phosphatase activity) [2]: 16.5 ± 1.7%
,,"CCNC(=O)C=Cc1ccc(C(=C(CC)c2ccccc2)c2ccccc2)cc1 [compound 16, 3-[4-(1,2-Diphenyl-but-1-enyl)-phenyl]-N-ethyl acrylamide]",,EC50 [2]: 18 nM; Emax (maximal alkaline phosphatase activity) [2]: 11.8 ± 1.9%
,,"CCC(=C(c1ccccc1)c1ccc(C=CC(=O)N(C2CCCCC2)C2CCCCC2)cc1)c1ccccc1 [Compound No. 12, N,N-Dicyclohexyl-3-[4-(1,2-diphenyl-but-1-enyl)-phenyl] acrylamide]",,receptor affinity in the receptor binding assay (in words) (rat estrogen receptor): reduced receptor affinity; EC50 [2]: 70 nM; Emax (maximal alkaline phosphatase activity) [2]: 19.4 ± 2.0%
139 to 140,,"CCC(=C(c1ccccc1)c1ccc(C=CC(=O)OC(C)(C)C)cc1)c1ccccc1 [Compound No. 8, 3-[4-(1,2-Diphenyl-but-1-enyl)-phenyl]-acrylic acid tert-butyl ester]",,
182 to 185,,"CCC(=C(c1ccccc1)c1ccc(C=CC(N)=NO)cc1)c1ccccc1 [compound 17, 1-Amino-3-[4-(1,2-diphenyl-but-1-enyl)-phenyl]-prop-2-ene-1-one oxime]",,
158 to 159,,"CCC(=C(c1ccccc1)c1ccc(C=Cc2noc(C)n2)cc1)c1ccccc1 [Compound No. 18, 3-{2-[4-(1,2-Diphenyl-but-1-enyl)-phenyl]-vinyl}-5-methyl-[1,2,4]-oxadiazole]",,
144 to 146,17,"CCC(=C(c1ccccc1)c1ccc(C=CC(=O)NCCCO)cc1)c1ccccc1 [compound 22, 3-[4-(1,2-Diphenyl-but-1-enyl)-phenyl]-N-(3-hydroxy-propyl)-acrylamide]",15.3 ± 2.4,
109 to 111,7.3,"CCC(=C(c1ccccc1)c1ccc(C(C)=CC(=O)N(CC)CC)cc1)c1ccccc1 [Compound No. 5, 3-[4-(1,2-Diphenyl-but-1-enyl)-phenyl]-but-2-enoic acid diethylamide]",15 ± 3,
101 to 102,,"CCC(=C(c1ccccc1)c1ccc(C=CC#N)cc1)c1ccccc1 [Compound No. 7, 3-[4-(1,2-Diphenyl-but-1-enyl)-phenyl]-acrylonitrile]",,
,58,"CCC(=C(c1ccccc1)c1ccc(C=CC(=O)O)cc1)c1ccccc1 [Compound No. 9, 3-[4-(1,2-Diphenyl-but-1-enyl)-phenyl]-acrylic acid]",3.8 ± 0.9,"residual agonist activity, uterine weight/body weight (FIG. 1) [1]: less residual agonist activity than tamoxifen; bone mineral density (BMD), lumbar spine and tibia (FIG. 2) [3]: full agonist activity; agonist activity (Emax) in the Ishikawa cell functional assay (in words) [2]: lowest residual agonist activity"
,33,"CC/C(=C(\c1ccccc1)c1ccc(OCCN(C)C)cc1)c1ccccc1 [Tamoxifen, (Z)-1,2-diphenyl-1-[4-[2-(dimethylamino)ethoxy]phenyl]-1-butene, reference compound]",16.5 ± 0.6,
,20,"CCC(=C(c1ccccc1)c1ccc(C=C(C)C(=O)N(CC)CC)cc1)c1ccccc1 [Compound No. 4, 3-[4-(1,2-Diphenyl-but-1-enyl)-phenyl]-N, N-diethyl-2-methyl-acrylamide]",18.8 ± 2.3,
150 to 154,6.9,"CCC(=C(c1ccccc1)c1ccc(C=CC(=O)N2CCOCC2)cc1)c1ccccc1 [compound 10, 3-[4-(1,2-Diphenyl-but-1-enyl)-phenyl]-1-morpholin-4-yl-prop-2-en-1-one]",14.8 ± 2.4,
80 to 83,,"CCC(=C(c1ccccc1)c1ccc(C=CCO)cc1)c1ccccc1 [Compound No. 19, 3-[4-(1,2-Diphenyl-but-1-enyl)-phenyl]-prop-2-ene-1-ol]",,
,,"CCC(=C(c1ccccc1)c1ccc(C=CC(=S)N(CC)CC)cc1)c1ccccc1 [compound 21, 3-[4-(1,2-Diphenyl-but-1-enyl)-phenyl]-N,N-diethyl thioacrylamide]",,EC50 [2]: 6.9 nM; Emax (maximal alkaline phosphatase activity) [2]: 18.8 ± 2.6%
